{"source": "patent US20110263668A1", "about": "“Beta 3-Adrenoreceptor Agonists for the Treatment of Cardiac Hypertrophy and Heart Failure” (THE JOHNS HOPKINS UNIVERSITY, priority 2009, published 2011)", "tested_on": "β3−/− and WT mice with transverse aortic constriction (TAC)", "experiment": "Echocardiography in β3−/− and WT mice after TAC with BH4 in the diet", "format": "in vivo, mouse", "details": "BH4 200 mg/kg/day in soft diet", "description": "Experimental Model. Baseline echocardiography was performed on 8-week, 4-month, and 14-18 month-old homozygous β3^−/− mice (n=57 total, original breeding pairs kindly provided by Dr. Bradford Lowell (Klein et al. (1999)) and age-matched FVB background WT controls (n=13, Jackson Laboratories, Bar Harbor, Me.). Transverse aortic constriction (TAC) was performed on 8-week-old male β3^−/− (n=21) and age-matched male WT controls (n=24) as previously described (Takimoto et al. (2005)). Briefly, after anesthesia with isoflurane (2%), the chest was opened through a small thoracic window between ribs 2 and 4, and a 25 G needle placed on the transverse aorta. This needle size was chosen to elicit a milder response as initial studies using a standard TAC model (27 G needle) led to pulmonary edema and 100% early mortality in β3^−/− mice. The band was secured using a 7.0 prolene suture, the needle was then removed and the chest closed. Twelve animals per strain underwent sham surgery. To measure pressure changes after TAC, pressure volume loops were obtained using a Millar micromanometer catheter as previously described (Barouch et al. (2002)). Animals were sacrificed 3 or 9 weeks after TAC and myocardial tissue preserved in 10% formalin or snap-frozen in liquid nitrogen for subsequent analysis. To determine whether there were any differences in proximal pressures after TAC between strains, a 1.4 F pressure catheter (Millar Instruments, Houston, Tex.) was advanced into the ascending aorta from the LV, and pressures recorded before and after TAC. […] In vivo cardiac geometry and function were serially assessed by transthoracic echocardiography (Acuson Sequoia C256, 13 MHz transducer; Siemens) in conscious mice. M-mode LV end-systolic and end-diastolic cross-sectional diameter (LVESD, LVEDD), and the mean of septal and posterior wall thicknesses were determined from an average of 3-5 cardiac cycles. LV fractional shortening (% FS) and LV mass were determined using a cylindrical model as previously described (Barouch et al. (2003))."}
{"smiles": "C[C@H](O)[C@H](O)[C@H]1CNc2nc(N)[nH]c(=O)c2N1", "note": "[BH4, tetrahydrobiopterin]", "values": [{"measurement": "change in fractional shortening", "setting": "WT-TAC/BH4, 3 weeks of TAC", "value": "−1.8±3.0", "unit": "%"}, {"measurement": "change in fractional shortening", "setting": "β3−/− TAC/BH4, 3 weeks of TAC", "value": "−0.4±0.2", "unit": "%"}, {"measurement": "increase in calculated LV mass", "setting": "β3−/− TAC/BH4, 3 weeks of TAC", "value": "+15.0±6.8%"}]}
